Active and inactive are the calls of the source. The calls are words filed in the database; no cut-off is given here.
Tests used:
Mus musculus [1] = assay: (§1) Hepatoprotective activity against APAP overdose-induced liver injury in C57BL/6 mouse assessed as serum ALT level at 10 mg/kg, po pretreated via gavage for 14 consecutive days followed by APAP treatment 1 hr post last dose on day 14 measured 12 hrs post APAP treatment by spectrophotometric method (reference value: 166 +/- 1.7 IU); format: functional
Mus musculus [2] = assay: as §1, with “100” for “10”; format: functional
Mus musculus [3] = assay: as §1, with “AST” for “ALT”, “143.8” for “166”, “2.5” for “1.7”; format: functional
Mus musculus [4] = assay: as §1, with “AST” for “ALT”, “100” for “10”, “143.8” for “166”, “2.5” for “1.7”; format: functional
Mus musculus [5] = assay: (§2) Hepatoprotective activity against APAP overdose-induced liver injury in C57BL/6 mouse assessed as total cholesterol level in serum at 10 mg/kg, po pretreated via gavage for 14 consecutive days followed by APAP treatment 1 hr post last dose on day 14 measured 12 hrs post APAP treatment by spectrophotometric method (reference value: 42.2 +/- 3.5 mg/dl); format: functional
Mus musculus [6] = assay: as §2, with “100” for “10”; format: functional
Mus musculus [7] = assay: as §2, with “HDL” for “total cholesterol”, “10.8” for “42.2”, “0.6” for “3.5”; format: functional
Mus musculus [8] = assay: as §2, with “HDL” for “total cholesterol”, “100” for “10”, “10.8” for “42.2”, “0.6” for “3.5”; format: functional
Mus musculus [9] = assay: as §2, with “atherogenic fraction” for “total cholesterol level”, “28.8” for “42.2”, “2.6” for “3.5”; format: functional
Mus musculus [10] = assay: as §2, with “atherogenic fraction” for “total cholesterol level”, “100” for “10”, “28.8” for “42.2”, “2.6” for “3.5”; format: functional
Mus musculus [11] = assay: (§3) Hepatoprotective activity against APAP overdose-induced oxidative damage in C57BL/6 mouse assessed as decrease in lipid peroxidation in liver at 10 to 100 mg/kg, po pretreated via gavage for 14 consecutive days followed by APAP treatment 1 hr post last dose on day 14 measured 12 hrs post APAP treatment by TBARS assay; format: functional, organism-based
Mus musculus [12] = assay: Hepatoprotective activity against APAP overdose-induced oxidative damage in po dosed C57BL/6 mouse assessed as decrease in carbonylated protein content in liver pretreated via gavage for 14 consecutive days followed by APAP treatment 1 hr post last dose on day 14 measured 12 hrs post APAP treatment by spectrophotometric method; format: functional, organism-based
Mus musculus [13] = assay: as §3, with “restoration of APAP-induced loss” for “decrease”, “SOD activity” for “lipid peroxidation”, “liver by measuring SOD ability to dismutase superoxide anion” for “liver”, “spectrophotometric method” for “TBARS assay”; format: functional, organism-based
Mus musculus [14] = assay: Hepatoprotective activity against APAP overdose-induced oxidative damage in C57BL/6 mouse assessed as restoration of APAP-induced loss in catalase activity in liver by measuring decrease in hydrogen peroxide level at 10 to 100 mg/kg, po pretreated via gavage for 14 consecutive days followed by APAP treatment 1 hr post last dose on day 14 measured 12 hrs post APAP treatment by spectrophotometric method; format: functional, organism-based
Mus musculus [15] = assay: as §3, with “increase” for “decrease”, “GSH level” for “lipid peroxidation”, “DTNB reagent based” for “TBARS”; format: functional, organism-based
Mus musculus [16] = assay: Hepatoprotective activity against APAP overdose-induced oxidative damage in C57BL/6 mouse assessed as decrease in GSSG level in liver at 10 mg/kg, po pretreated via gavage for 14 consecutive days followed by APAP treatment 1 hr post last dose on day 14 measured 12 hrs post APAP treatment; format: functional, organism-based
Mus musculus [17] = assay: Hepatoprotective activity against APAP overdose-induced oxidative damage in C57BL/6 mouse assessed as decrease in GSSG level in liver at 100 mg/kg, po pretreated via gavage for 14 consecutive days followed by APAP treatment 1 hr post last dose on day 14 measured 12 hrs post APAP treatment; format: functional, organism-based
Mus musculus [18] = assay: Hepatoprotective activity against APAP overdose-induced oxidative damage in C57BL/6 mouse assessed as inhibition of APAP-induced decrease in total GSH level in liver at 10 to 100 mg/kg, po pretreated via gavage for 14 consecutive days followed by APAP treatment 1 hr post last dose on day 14 measured 12 hrs post APAP treatment by DTNB reagent based assay; format: functional, organism-based
Mus musculus [19] = assay: as §1, with “damage” for “injury”, “IL-1beta mRNA” for “ALT”, “RT-PCR” for “spectrophotometric”, “1.67” for “166”, “0.4)” for “1.7 IU)”; format: functional
Mus musculus [20] = assay: as §1, with “damage” for “injury”, “IL-6 mRNA” for “ALT”, “RT-PCR” for “spectrophotometric”, “0.32” for “166”, “0.2)” for “1.7 IU)”; format: functional
Mus musculus [21] = assay: as §1, with “damage” for “injury”, “IL-10 mRNA” for “ALT”, “RT-PCR” for “spectrophotometric”, “0.45” for “166”, “0.2)” for “1.7 IU)”; format: functional
Mus musculus [22] = assay: as §1, with “damage” for “injury”, “IL-1beta mRNA” for “ALT”, “100” for “10”, “RT-PCR” for “spectrophotometric”, “1.67” for “166”, “0.4)” for “1.7 IU)”; format: functional
Mus musculus [23] = assay: as §1, with “damage” for “injury”, “IL-6 mRNA” for “ALT”, “100” for “10”, “RT-PCR” for “spectrophotometric”, “0.32” for “166”, “0.2)” for “1.7 IU)”; format: functional
Mus musculus [24] = assay: as §1, with “damage” for “injury”, “IL-10 mRNA” for “ALT”, “100” for “10”, “RT-PCR” for “spectrophotometric”, “0.45” for “166”, “0.2)” for “1.7 IU)”; format: functional
Mus musculus [25] = assay: as §3, with “liver” for “oxidative”, “APAP-induced MMP2 activity” for “lipid peroxidation”, “coomassie brilliant blue staining based gelatin zymography” for “TBARS”; format: functional, organism-based
Mus musculus [26] = assay: (§4) Hepatoprotective activity against APAP overdose-induced liver damage in C57BL/6 mouse assessed as decrease in liver necrotic area at 10 mg/kg, po pretreated via gavage for 14 consecutive days followed by APAP treatment 1 hr post last dose on day 14 measured 12 hrs post APAP treatment by hematoxylin and eosin staining based assay; format: functional, organism-based
Mus musculus [27] = assay: as §4, with “100” for “10”; format: functional, organism-based

CC(C)=CCC/C(C)=C/C=C/C(C)=C/C=C/C(C)=C/C=C/C=C(C)/C=C/C=C(C)/C=C/C=C(\C)CCC=C(C)C [LYCOPENE]
Activity (Mus musculus [1]): 161.7 IU
Activity (Mus musculus [2]): 164.1 IU
Activity (Mus musculus [3]): 139.6 IU
Activity (Mus musculus [4]): 139.8 IU
Activity (Mus musculus [5]): 41 mg/dL
Activity (Mus musculus [6]): 58.2 mg/dL
Activity (Mus musculus [7]): 9 mg/dL
Activity (Mus musculus [8]): 17 mg/dL
Activity (Mus musculus [9]): 30 mg/dL
Activity (Mus musculus [10]): 41.1 mg/dL
Activity (Mus musculus [11]): Active
Activity (Mus musculus [12]): Dose-dependent effect
Activity (Mus musculus [13]): inactive
Activity (Mus musculus [14]): Active
Activity (Mus musculus [15]): Active
Activity (Mus musculus [16]): inactive
Activity (Mus musculus [17]): Active
Activity (Mus musculus [18]): Active
Activity (Mus musculus [19]): 0.68
Activity (Mus musculus [20]): 0.37
Activity (Mus musculus [21]): 0.57
Activity (Mus musculus [22]): 0.58
Activity (Mus musculus [23]): 0.4
Activity (Mus musculus [24]): 0.3
Activity (Mus musculus [25]): Active
Activity (Mus musculus [26]): inactive
Activity (Mus musculus [27]): Active

— ChEMBL document CHEMBL4000214, “Lycopene pretreatment improves hepatotoxicity induced by acetaminophen in C57BL/6 mice” (2017)
